Molecular target: USP7 (Homo sapiens, UniProt Q93009)
Experiment: USP7 inhibitory potency (IC50)
Type: biochemical
Procedure: Activity for compounds described herein is provided in Table 2, wherein potency levels are provided as follows: (Potency: USP7 IC50: A<0.01 μM; B=0.01-0.1 μM; C=>0.1 μM.

Sequence of USP7 (Q93009 whole entry): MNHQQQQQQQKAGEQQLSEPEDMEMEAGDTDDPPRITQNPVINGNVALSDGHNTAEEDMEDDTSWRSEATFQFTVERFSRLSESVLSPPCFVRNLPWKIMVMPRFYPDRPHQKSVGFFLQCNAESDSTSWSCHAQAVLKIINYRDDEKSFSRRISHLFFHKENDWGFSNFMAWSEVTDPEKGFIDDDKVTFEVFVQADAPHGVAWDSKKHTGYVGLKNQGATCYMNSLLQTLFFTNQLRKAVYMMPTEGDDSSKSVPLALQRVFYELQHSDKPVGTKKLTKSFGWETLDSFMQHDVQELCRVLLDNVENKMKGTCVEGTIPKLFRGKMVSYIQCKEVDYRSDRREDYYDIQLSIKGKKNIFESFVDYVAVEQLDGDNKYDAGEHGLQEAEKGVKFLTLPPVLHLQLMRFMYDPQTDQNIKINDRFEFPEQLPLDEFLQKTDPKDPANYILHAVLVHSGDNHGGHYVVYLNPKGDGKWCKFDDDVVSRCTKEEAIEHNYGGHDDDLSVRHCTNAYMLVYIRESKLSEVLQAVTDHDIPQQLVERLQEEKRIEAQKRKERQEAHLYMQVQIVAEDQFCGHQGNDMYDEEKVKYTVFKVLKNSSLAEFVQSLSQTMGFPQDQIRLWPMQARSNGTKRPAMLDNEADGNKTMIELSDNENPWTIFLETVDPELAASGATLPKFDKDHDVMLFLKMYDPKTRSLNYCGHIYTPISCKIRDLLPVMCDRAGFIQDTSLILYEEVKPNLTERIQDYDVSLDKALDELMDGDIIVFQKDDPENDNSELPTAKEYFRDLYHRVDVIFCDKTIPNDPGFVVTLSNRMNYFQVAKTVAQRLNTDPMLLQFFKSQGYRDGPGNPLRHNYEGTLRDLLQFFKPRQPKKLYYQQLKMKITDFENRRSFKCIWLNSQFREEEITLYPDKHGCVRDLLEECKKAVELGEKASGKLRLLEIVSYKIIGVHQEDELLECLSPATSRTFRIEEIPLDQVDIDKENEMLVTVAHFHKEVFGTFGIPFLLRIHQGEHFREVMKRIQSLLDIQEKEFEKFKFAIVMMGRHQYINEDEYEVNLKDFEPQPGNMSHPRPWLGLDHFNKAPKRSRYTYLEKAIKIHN

Row | Structure (SMILES) | IC50 [nM]
1 | Cc1cc(Cl)cc(-c2ncnc3cc(CN4C(=O)C5CC5C4=O)sc23)c1CC1CNCCCO1 (stereo not shown) [Example 189, 3-((4-(2-((1,4-oxazepan-2-yl)methyl)-5-chloro-3-methylphenyl)thieno[3,2-d]pyrimidin-6-yl)methyl)-3-azabicyclo[3.1.0]hexane-2,4-dione] | < 10
2 | Cc1cc(Cl)cc(-c2ccnc3cc(CN4C(=O)CCC4=O)sc23)c1CN1CCCNCC1 [Example 17, 1-((7-(2-((1,4-diazepan-1-yl)methyl)-5-chloro-3-methylphenyl)thieno[3,2-b]pyridin-2-yl)methyl)pyrrolidine-2,5-dione] | < 10
3 | Cc1cc(Cl)cc(-c2ccnc3cc(Cn4c(=O)ccn(C)c4=O)sc23)c1CC1CNCC2(CCC2)O1 (stereo not shown) [Example 145, 3-((7-(2-((5-oxa-8-azaspiro[3.5]nonan-6-yl)methyl)-5-chloro-3-methylphenyl)thieno[3,2-b]pyridin-2-yl)methyl)-1-methylpyrimidine-2,4(1H,3H)-dione] | < 10
4 | C[C@H]1CNC[C@H](C)N1Cc1c(Cl)cc(Cl)cc1-c1ncnc2cc(CN3C(=O)CCC3=O)sc12 [Example 92, 1-((4-(3,5-dichloro-2-(((2S,6S)-2,6-dimethylpiperazin-1-yl)methyl)phenyl)thieno[3,2-d]pyrimidin-6-yl)methyl)pyrrolidine-2,5-dione] | < 10
5 | Cc1cc(Cl)cc(-c2ccnc3cc(CN4C(=O)C5CC5C4=O)sc23)c1C[C@@H]1CN[C@@H](C)CO1 (stereo partly shown) [Example 98, 3-((7-(5-chloro-3-methyl-2-((5-methylmorpholin-2-yl)methyl)phenyl)thieno[3,2-b]pyridin-2-yl)methyl)-3-azabicyclo[3.1.0]hexane-2,4-dione] | < 10
6 | Cc1cc(Cl)cc(-c2ncnc3cc(CN4C(=O)C5CC5C4=O)sc23)c1CN1[C@@H](C)CNC[C@@H]1C (stereo partly drawn) [Example 57, 3-((4-(5-chloro-2-(((2S,6S)-2,6-dimethylpiperazin-1-yl)methyl)-3-methylphenyl)thieno[3,2-d]pyrimidin-6-yl)methyl)-3-azabicyclo[3.1.0]hexane-2,4-dione] | < 10
7 | Cc1cc(Cl)cc(-c2ccnc3cc(CN4C(=O)C5CC5C4=O)sc23)c1C[C@H]1CNCC(C)(C)O1 (stereo partly drawn) [Example 134, 3-((7-(5-chloro-2-(((S)-6,6-dimethylmorpholin-2-yl)methyl)-3-methylphenyl)thieno[3,2-b]pyridin-2-yl)methyl)-3-azabicyclo[3.1.0]hexane-2,4-dione] | 10 to 100
8 | C[C@H]1CNC[C@H](C)N1Cc1c(Cl)cc(Cl)cc1-c1ncnc2cc(CN3C(=O)CN(C)C3=O)sc12 [Example 94, 3-((4-(3,5-dichloro-2-(((2S,6S)-2,6-dimethylpiperazin-1-yl)methyl)phenyl)thieno[3,2-d]pyrimidin-6-yl)methyl)-1-methylimidazolidine-2,4-dione] | < 10
9 | Cc1cc(Cl)cc(-c2ncnc3cc(CN4C(=O)C5C(C4=O)C5(C)C)sc23)c1C[C@@H]1CNCCO1 (stereo partly drawn) [Example 196, 3-((4-(5-chloro-3-methyl-2-(((R)-morpholin-2-yl)methyl)phenyl)thieno[3,2-d]pyrimidin-6-yl)methyl)-6,6-dimethyl-3-azabicyclo[3.1.0]hexane-2,4-dione] | < 10
10 | Cc1cc(Cl)cc(-c2ccnc3cc(CN4C(=O)C5CC5C4=O)sc23)c1CN1CCCNC(C)C1 (stereo not shown) [Example 41, 3-((7-(5-chloro-3-methyl-2-((3-methyl-1,4-diazepan-1-yl)methyl)phenyl)thieno[3,2-b]pyridin-2-yl)methyl)-3-azabicyclo[3.1.0]hexane-2,4-dione] | 10 to 100
11 | Cc1cc(Cl)cc(-c2ncnc3cc(CN4C(=O)C5C(C4=O)C5(C)C)sc23)c1CN1[C@@H](C)CNC[C@@H]1C (stereo partly drawn) [Example 56, 3-((4-(5-chloro-2-(((2S,6S)-2,6-dimethylpiperazin-1-yl)methyl)-3-methylphenyl)thieno[3,2-d]pyrimidin-6-yl)methyl)-6,6-dimethyl-3-azabicyclo[3.1.0]hexane-2,4-dione] | 10 to 100
12 | Cc1cc(Cl)cc(-c2ncnc3cc(Cn4c(=O)ccn(CC(F)(F)F)c4=O)sc23)c1CN1C[C@@H](C)NC[C@@H]1C [Example 73, 3-((4-(5-chloro-2-(((2S,5R)-2,5-dimethylpiperazin-1-yl)methyl)-3-methylphenyl)thieno[3,2-d]pyrimidin-6-yl)methyl)-1-(2,2,2-trifluoroethyl)pyrimidine-2,4(1H,3H)-dione] | < 10
13 | O=C1C2CC2C(=O)N1Cc1cc2nccc(-c3cc(Cl)cc(Cl)c3CC3CNCC4(CCC4)O3)c2s1 (stereo not shown) [Example 150, 3-((7-(2-((5-oxa-8-azaspiro[3.5]nonan-6-yl)methyl)-3,5-dichlorophenyl)thieno[3,2-b]pyridin-2-yl)methyl)-3-azabicyclo[3.1.0]hexane-2,4-dione] | < 10
14 | Cc1cc(Cl)cc(-c2ncnc3cc(CN4C(=O)C5CCC5C4=O)sc23)c1CC1CNCC(C)(C)O1 (stereo not shown) [Example 180, 3-((4-(5-chloro-2-((6,6-dimethylmorpholin-2-yl)methyl)-3-methylphenyl)thieno[3,2-d]pyrimidin-6-yl)methyl)-3-azabicyclo[3.2.0]heptane-2,4-dione] | < 10
15 | Cc1cc(Cl)cc(-c2ncnc3cc(Cn4c(=O)ccn(C)c4=O)sc23)c1C[C@@H]1CNCC(C)(C)O1 [Example 218, (R)-3-((4-(5-chloro-2-((6,6-dimethylmorpholin-2-yl)methyl)-3-methylphenyl)thieno[3,2-d]pyrimidin-6-yl)methyl)-1-methylpyrimidine-2,4(1H,3H)-dione] | < 10
16 | Cc1cc(Cl)cc(-c2ncnc3cc(CN4CCCC4=O)sc23)c1C[C@@H]1CNCC(C)(C)O1 [Example 235, (R)-1-((4-(5-chloro-2-((6,6-dimethylmorpholin-2-yl)methyl)-3-methylphenyl)thieno[3,2-d]pyrimidin-6-yl)methyl)pyrrolidin-2-one] | 10 to 100
17 | Cc1cc(Cl)cc(-c2ccnc3cc(CN4C(=O)C5C(C4=O)C5(C)C)sc23)c1CN1CCNC[C@@H]1C (stereo partly drawn) [Example 20, 3-((7-(5-chloro-3-methyl-2-(((S)-2-methylpiperazin-1-yl)methyl)phenyl)thieno[3,2-b]pyridin-2-yl)methyl)-6,6-dimethyl-3-azabicyclo[3.1.0]hexane-2,4-dione] | < 10
18 | Cc1cc(Cl)cc(-c2ccnc3cc(CN4C(=O)C5CC5C4=O)sc23)c1CC1CNCC2(COC2)O1 (stereo not shown) [Example 138, 3-((7-(2-((2,5-dioxa-8-azaspiro[3.5]nonan-6-yl)methyl)-5-chloro-3-methylphenyl)thieno[3,2-b]pyridin-2-yl)methyl)-3-azabicyclo[3.1.0]hexane-2,4-dione] | < 10
19 | Cc1cc(Cl)cc(-c2ccnc3cc(CN4C(=O)CN(C)C4=O)sc23)c1CC1CNCCO1 (stereo not shown) [Example 117, 3-((7-(5-chloro-3-methyl-2-(morpholin-2-ylmethyl)phenyl)thieno[3,2-b]pyridin-2-yl)methyl)-1-methylimidazolidine-2,4-dione] | < 10
20 | Cc1cc(Cl)cc(-c2ccnc3cc(CN4C(=O)CCC4=O)sc23)c1CN1C[C@@H](C)NC[C@@H]1C [Example 44, 1-((7-(5-chloro-2-(((2S,5R)-2,5-dimethylpiperazin-1-yl)methyl)-3-methylphenyl)thieno[3,2-b]pyridin-2-yl)methyl)pyrrolidine-2,5-dione] | < 10
21 | Cc1cc(Cl)cc(-c2ncnc3cc(CN4C(=O)NCC(C)C4=O)sc23)c1C[C@@H]1CNCCO1 (stereo partly drawn) [Example 249, 3-((4-(5-chloro-3-methyl-2-(((R)-morpholin-2-yl)methyl)phenyl)thieno[3,2-d]pyrimidin-6-yl)methyl)-5-methyldihydropyrimidine-2,4(1H,3H)-dione] | < 10
22 | Cc1cc(Cl)cc(-c2ncnc3cc(CN4C(=O)C5CC5C4=O)sc23)c1CC1CNCC2(CC2)O1 (stereo not shown) [Example 208, 3-((4-(2-((4-oxa-7-azaspiro[2.5]octan-5-yl)methyl)-5-chloro-3-methylphenyl)thieno[3,2-d]pyrimidin-6-yl)methyl)-3-azabicyclo[3.1.0]hexane-2,4-dione] | < 10
23 | Cc1cc(Cl)cc(-c2ncnc3cc(CN4C(=O)CC(C)NC4=O)sc23)c1C[C@@H]1CNCCO1 (stereo partly drawn) [Example 248, 3-((4-(5-chloro-3-methyl-2-(((R)-morpholin-2-yl)methyl)phenyl)thieno[3,2-d]pyrimidin-6-yl)methyl)-6-methyldihydropyrimidine-2,4(1H,3H)-dione] | < 10
24 | Cc1cc(Cl)cc(-c2ncnc3cc(CN4C(=O)CCN(CC(F)F)C4=O)sc23)c1C[C@@H]1CNCC(C)(C)O1 [Example 240, (R)-3-((4-(5-chloro-2-((6,6-dimethylmorpholin-2-yl)methyl)-3-methylphenyl)thieno[3,2-d]pyrimidin-6-yl)methyl)-1-(2,2-difluoroethyl)dihydropyrimidine-2,4(1H,3H)-dione] | < 10
25 | CCC1CCC(=O)N1Cc1cc2ncnc(-c3cc(Cl)cc(C)c3C[C@@H]3CNCC(C)(C)O3)c2s1 (stereo partly drawn) [Example 232, 1-((4-(5-chloro-2-(((R)-6,6-dimethylmorpholin-2-yl)methyl)-3-methylphenyl)thieno[3,2-d]pyrimidin-6-yl)methyl)-5-ethylpyrrolidin-2-one] | 10 to 100
26 | Cc1cc(Cl)cc(-c2ncnc3cc(CN4C(=O)C5CCCCN5C4=O)sc23)c1CC1CNCCO1 (stereo not shown) [Example 184, 2-((4-(5-chloro-3-methyl-2-(morpholin-2-ylmethyl)phenyl)thieno[3,2-d]pyrimidin-6-yl)methyl)tetrahydroimidazo[1,5-a]pyridine-1,3(2H,5H)-dione] | < 10
27 | C[C@H]1CNCCN1Cc1c(F)cccc1-c1ncnc2cc(CN3C(=O)C4CC4C3=O)sc12 (stereo partly drawn) [Example 72, 3-((4-(3-fluoro-2-(((S)-2-methylpiperazin-1-yl)methyl)phenyl)thieno[3,2-d]pyrimidin-6-yl)methyl)-3-azabicyclo[3.1.0]hexane-2,4-dione] | > 100
28 | Cc1cc(C#N)cc(-c2ncnc3cc(CN4C(=O)C5CC5C4=O)sc23)c1CN1CCNC[C@@H]1C (stereo partly drawn) [Example 60, 3-(6-((2,4-dioxo-3-azabicyclo[3.1.0]hexan-3-yl)methyl)thieno[3,2-d]pyrimidin-4-yl)-5-methyl-4-(((S)-2-methylpiperazin-1-yl)methyl)benzonitrile] | 10 to 100
